Read-outs that look alike come from different tables or passages of the source.
Columns and labels:
[1] = Hepatic first-pass effect / hepatic clearance rate (jugular vs pyloric vein AUC0-t) in inflamed rats; assay type: in vivo, Sprague-Dawley rats; conditions: inflamed rats (G5, n = 5), oral HLJDD; HCR% = 100×(AUC0−t pyloric vein − AUC0−t jugular vein)/AUC0−t pyloric vein
Description: (§1) For the PK-PD analysis, cannulas were implanted in each rat’s jugular vein (n = 22). To study the hepatic first-pass effect (HFPE), the jugular vein and the pyloric vein of each rat (n = 5) were cannulated according to the method described by Hye J. Chung et al. with slight modifications. Instead of the portal vein, the pyloric vein was cannulated to minimize the interference of blood flow in the portal vein [41]. The surgery was performed under anesthesia (3% chloral hydrate solution, intraperitoneal injection; 3.5 mL/kg) 5 days prior to the experiment. Rats with jugular vein intubation surgery were divided into four groups: a control group with HLJDD (G1, n = 6), aninflammatory group with HLJDD (G2, n = 6), aninflammatory group with physiological saline (G3, n = 5) and another inflammatory group with HLJDD (G4, n = 5). G1 and G2 were used for the pharmacokinetic study, while G3 and G4 were used for the pharmacodynamic study. Rats with jugular and pyloric vein cannulation for HFPE analysis were assigned to another inflammatory group with HLJDD (G5, n = 5).
The prepared HLJDD-EP solution was administered to the rats (G1, G2, G4 and G5) at 2 mL/100g body weight (crude material content: 3.5 g/kg) by oral gavage, and the G3 group was given the same volume of physiological saline. In the G1 and G2 groups, blood specimens (300 μL) were obtained before dosing and subsequently at 5 min, 10 min, 30 min, 1, 2, 4, 6, 8, 12, 24, 36 and 48 h after the oral administration of HLJDD-EP solution. In the G3 and G4 groups, blood samples (300 μL) were collected prior to dosing and followed at 10 min, 30 min, 1, 2, 4, 8, 24 and 48 h after drug administration. The rectal temperature of rats in the G3 and G4 groups was immediately monitored after each collection of blood. For the HFPE assay, blood specimens (150 μL) from both the jugular vein and the pyloric vein of the G5 rats were simultaneously taken before dosing and subsequently at 5 min, 10 min, 30 min, 1, 2, 4, 6, 8, 12, 24, 36 and 48 h after oral administration. Samples were collected in heparinized Eppendorf tubes and centrifuged at 3000 rpm for 15 min. The plasma was stored at -80°C until assay.
For the pharmacokinetic investigation and HFPE analysis, 100 μL aliquots of plasma were mixed with 5 μL of ascorbic acid (dissolved in physiological saline, w/v: 1 g/100 mL) and 200 μL of methanol (containing an internal standard stock solution with 80.0 ng/mL swertiamarin, 1.5 ng/mL corynoline and 33.0 ng/mL icariin), followed by vortexing and centrifuging at 15000 rpm for 20 min to remove the precipitate. The supernatant was dried with nitrogen at 40°C. […] The supernatant was analyzed using Agilent 1290 ultra-high performance liquid chromatography coupled with an Agilent 6490 Triple Quadrupole Mass Spectrometer (Agilent Technologies, Palo Alto, CA, USA).
Pharmacokinetic parameters of the determined compounds were processed by the non-compartmental method using Phoenix Winnonlin software (Pharsight Corporation, USA). […] The mean residence time (MRT) was determined as AUMC/AUC. The plasma half-life (HLλz), maximum plasma concentration (Cmax), the time to reach Cmax (Tmax) and other parameters following the administration of HLJDD were determined from the observed data. […] Concentrations of cytokines were analyzed by cytometric bead array software (FCAP Array version 3.0, BD Bioscience). All the data were expressed as the mean±standard deviation (SD). […]

[2] = Pharmacokinetics of HLJDD components in rat plasma after oral administration of HLJDD (LC-QqQ-MS, non-compartmental); assay type: in vivo, Sprague-Dawley rats; conditions: oral HLJDD extract; for AUC%Extrap / AUCinf / AUClast / AUMClast / CL/F / Cmax1 / Cmax2 / HLλz / MRTlast / Tmax1 / Tmax2 / Vz/F / AUC(0-inf) / AUC(0-t) / MRT last / Vd/F: crude material 3.5 g/kg, plasma, n = 6; for Vd/F: read-out: Vz/F
Description: The rats were acclimatized to the facilities for 5 days and screened via the continuous determination of the rectal temperature for two days. […] The control group G1 was injected with the same volume of physiological saline. The ethics committees of Cisco North Biotechnology Co., Ltd. (Beijing, China) and the China Academy of Chinese Medical Sciences (Beijing, China) approved the experimental protocol.
as §1
The prepared HLJDD-EP solution was administered to the rats (G1, G2, G4 and G5) at 2 mL/100g body weight (crude material content: 3.5 g/kg) by oral gavage, and the G3 group was given the same volume of physiological saline. […] The rectal temperature of rats in the G3 and G4 groups was immediately monitored after each collection of blood. […] Samples were collected in heparinized Eppendorf tubes and centrifuged at 3000 rpm for 15 min. The plasma was stored at -80°C until assay.
The supernatant was dried with nitrogen at 40°C. The residue was re-dissolved in 100 μL of methanol and centrifuged at 15000 rpm for 10 min.
Liquid chromatographic separations of the analytes were performed using a Thermo Scientific Hypersil GOLD column (50 mm× 2.1 mm, 1.9 μm). The mobile phase consisted of acetonitrile (solvent A) and 0.1% formic acid in water (solvent B). […] The flow rate was 0.3 mL/min. The injection volume was 2 μL. […] The optimized ESI source parameters were as follows: gas temperature, 200°C; gas flow, 14 L/min; nebulizer pressure, 20 psi; sheath gas temperature, 400°C; and sheath gas flow, 11 L/min. Analytes were quantitated by monitoring the precursor-product combination in the DMRM mode using ion polarity switching (flavonoids and alkaloids were determined in the positive mode, while iridoids were detected in the negative mode). To ensure the desired abundance of each compound, the CE values and other parameters were optimized and illustrated as follows: cycle time, 300 ms; positive capillary voltage, 3000 v; negative capillary voltage, 2000 v; positive nozzle voltage, 1500 v; negative nozzle voltage, 1000 v; Delta EMV(+), 200 v; Delta EMV(-), 200 v. The optimized mass transition ion pairs (m/z) for analytes and the detection of the conditions of the compounds are shown in S1 Table.
Pharmacokinetic parameters of the determined compounds were processed by the non-compartmental method using Phoenix Winnonlin software (Pharsight Corporation, USA). Linear trapezoidal integration was used to calculate areas under the concentration-time curves (AUC) and areas under the first moment curves (AUMC). The mean residence time (MRT) was determined as AUMC/AUC. The plasma half-life (HLλz), maximum plasma concentration (Cmax), the time to reach Cmax (Tmax) and other parameters following the administration of HLJDD were determined from the observed data. The HFPE was defined as HCR: HCR% = 100×(AUC0−t in the pyloric vein-AUC0−t in the jugular vein)/AUC0−t in the pyloric vein.

[3] = male, Sprague-Dawley, rat, po, 3.5 g/kg, inflamed rats (group M)
[4] = male, Sprague-Dawley, rat, po, 3.5 g/kg, inflamed rats (group M), read-out: CL/F (converted)
[5] = male, Sprague-Dawley, rat, po, 3.5 g/kg, normal rats (group B)

SMILES | hepatic clearance rate (HCR) [1] | AUC%Extrap ([2]; inflamed rats (group M)) [%] | AUMClast ([2]; inflamed rats (group M)) [h*h*ng/ml] | Cmax1 ([2]; inflamed rats (group M)) [ng/mL] | Cmax2 ([2]; inflamed rats (group M)) [ng/mL] | HLλz ([2]; inflamed rats (group M)) [h] | Tmax1 ([2]; inflamed rats (group M)) [min] | Tmax2 ([2]; inflamed rats (group M)) [h] | AUC%Extrap ([2]; normal rats (group B)) [%] | AUMClast ([2]; normal rats (group B)) [h*h*ng/ml] | Cmax1 ([2]; normal rats (group B)) [ng/mL] | Cmax2 ([2]; normal rats (group B)) [ng/mL] | HLλz ([2]; normal rats (group B)) [h] | Tmax1 ([2]; normal rats (group B)) [min] | Tmax2 ([2]; normal rats (group B)) [h] | other results
COc1cc(O[C@@H]2O[C@H](C(=O)O)[C@@H](O)[C@H](O)[C@H]2O)c2c(=O)cc(-c3ccccc3)oc2c1O[C@@H]1O[C@H](C(=O)O)[C@@H](O)[C@H](O)[C@H]1O [F4, 5,8-dihyroxy-7-methoxy flavone-5,8-di-O-glucuronide] | approximately zero | – | – | – | – | – | – | – | – | – | – | – | – | – | – | –
COc1cc(O)c2c(=O)cc(-c3ccccc3)oc2c1O[C@@H]1O[C@H](C(=O)O)[C@@H](O)[C@H](O)[C@H]1O [F7, 5,8-dihyroxy-7-methoxy flavone-8-O-glucuronide] | approximately zero | – | – | – | – | – | – | – | – | – | – | – | – | – | – | –
COC(=O)C1=CO[C@@H](O[C@@H]2O[C@H](CO)[C@@H](O)[C@H](O)[C@H]2O)[C@H]2[C@@H]1C=C[C@@]2(O)CO [I1, gardenoside] | -43.7% | – | – | – | – | – | – | – | – | – | – | – | – | – | – | –
COC(=O)C1=CO[C@@H](O[C@@H]2O[C@H](CO)[C@@H](O)[C@H](O)[C@H]2O)[C@@H]2C(CO)=C[C@@H](O)[C@H]12 [I2, scandoside methyl ester] | approximately zero | – | – | – | – | – | – | – | – | – | – | – | – | – | – | –
COc1c(O[C@@H]2O[C@H](C(=O)O)[C@@H](O)[C@H](O)[C@H]2O)cc2oc(-c3ccccc3)cc(=O)c2c1O [oroxylin A-7-O-glucuronide] | – | 46.2±12.3 | 18194.0±6706.5 | 108.7 ± 47.6 | 65.5 ± 18.2 | 20.1 ± 6.1 | 5.4 ± 1.8 | 9.6 ± 2.2 | 10.3±6.8 | 1935.2±487.3 | 106.9 ± 43.8 | 85.8 ± 40.3 | 3.2 ± 0.9 | 5.4 ± 1.8 | 4.0 ± 0.0 | AUCinf ([2]; inflamed rats (group M)): 2157.4 ± 785.0 ng·h/mL; AUClast ([2]; inflamed rats (group M)): 1209.8 ± 606.4 ng·h/mL; CL/F ([2]; inflamed rats (group M)): 202 ± 70 mL/min/kg; MRTlast ([2]; inflamed rats (group M)): 12.5 ± 2.3 h; Vz/F ([2]; inflamed rats (group M)): 322.4 ± 22.0 L/kg; AUCinf ([2]; normal rats (group B)): 486.8 ± 96.9 ng·h/mL; AUClast ([2]; normal rats (group B)): 440.7 ± 106.9 ng·h/mL; CL/F ([2]; normal rats (group B)): 845 ± 225 mL/min/kg; MRTlast ([2]; normal rats (group B)): 4.4 ± 0.5 h; Vz/F ([2]; normal rats (group B)): 247.8 ± 140.4 L/kg
COc1c(O)cc2oc(-c3ccccc3)cc(=O)c2c1O [oroxylin A] | – | 13.4±8.6 | 365.4±192.9 | 2.5 ± 1.1 | 2.3 ± 0.8 | 16.3 ± 8.8 | 4.8 ± 0 | 7.0 ± 3.0 | 5.3±3.4 | 7.1±2.7 | 1.5 ± 0.6 | 0.4 ± 0.1 | 1.7 ± 0.9 | 4.8 ± 0 | 4.0 ± 0.0 | AUC(0-inf) [2, 3]: 24.6 ± 6.1 ng·h/mL; AUC(0-t) [2, 3]: 21.1 ± 4.1 ng·h/mL; MRT last [2, 3]: 16.5 ± 6.2 h; CL/F [2, 4]: 1790 mL/min/kg; Vd/F [2, 3]: 2820 ± 507 L/kg; AUC(0-inf) [2, 5]: 2.4 ± 0.5 ng·h/mL; AUC(0-t) [2, 5]: 2.3 ± 0.5 ng·h/mL; MRT last [2, 5]: 3 ± 0.6 h; Vd/F [2, 5]: 2500 ± 1080 L/kg
COc1c(O)cc(O)c2c(=O)cc(-c3ccccc3)oc12 [wogonin] | – | 1.3±0.7 | 442.5±232.9 | 3.3 ± 0.7 | 4.3 ± 1.8 | 7.1 ± 2.7 | 4.8 ± 0 | 7.3 ± 2.7 | 2.7±2.3 | 31.8±14.3 | 2.2 ± 1.2 | 1.6 ± 0.7 | 3.5 ± 1.3 | 5.4 ± 1.8 | 4.0 ± 0.0 | mean AUClast, fold larger in the inflamed group than in the control group ([2]; inflamed vs normal rats): 5.4 fold; AUC(0-inf) [2, 3]: 39.2 ± 8 ng·h/mL; AUC(0-t) [2, 3]: 38.7 ± 8.1 ng·h/mL; MRT last [2, 3]: 11 ± 3.5 h; CL/F [2, 4]: 2740 mL/min/kg; Vd/F [2, 3]: 1710 ± 667 L/kg; AUC(0-inf) [2, 5]: 7.4 ± 2.6 ng·h/mL; AUC(0-t) [2, 5]: 7.2 ± 2.6 ng·h/mL; MRT last [2, 5]: 4.3 ± 0.8 h; Vd/F [2, 5]: 4010 ± 1350 L/kg
COc1c(O[C@@H]2O[C@H](C(=O)O)[C@@H](O)[C@H](O)[C@H]2O)cc(O)c2c(=O)cc(-c3ccccc3)oc12 [wogonoside] | – | 17.3±13.8 | 92756.1±44786.8 | 571.9 ± 183.4 | 323.9 ± 52.5 | 12.2 ± 5.9 | 9.6 ± 4.8 | 8.7 ± 3.0 | 9.6±6.6 | 15357.0±3545.6 | 492.9 ± 152.9 | 517.7 ± 173.8 | 3.0 ± 1.0 | 6.6 ± 2.4 | 4.3 ± 0.8 | AUCinf ([2]; inflamed rats (group M)): 8380.9 ± 1944.5 ng·h/mL; AUClast ([2]; inflamed rats (group M)): 6870.4 ± 1786.5 ng·h/mL; CL/F ([2]; inflamed rats (group M)): 190 ± 45 mL/min/kg; MRTlast ([2]; inflamed rats (group M)): 12.9 ± 3.0 h; Vz/F ([2]; inflamed rats (group M)): 188.6 ± 72.3 L/kg; AUCinf ([2]; normal rats (group B)): 3615.4 ± 872.3 ng·h/mL; AUClast ([2]; normal rats (group B)): 3302.3 ± 975.1 ng·h/mL; CL/F ([2]; normal rats (group B)): 442 ± 117 mL/min/kg; MRTlast ([2]; normal rats (group B)): 4.7 ± 0.5 h; Vz/F ([2]; normal rats (group B)): 118.7 ± 58.0 L/kg
